Data as given in publication PMC12040169 (PLOS Biology, 2025).

test: in vitro; conditions: human, hela cells

Compound	viability at 28.5 h, 10 µM [%]
O=C(O)c1cc(NC(=O)c2ccc3c(c2)C(=O)N(Cc2ccco2)C3=O)cc(C(=O)O)c1 [CBK267374]	101

same assay, conditions: human, hela cells, % viability

Compound	viability at 28.5 h, 10 µM [%]
Cc1ccc(C)c(S(=O)(=O)NCC(=O)Nc2nsc(-c3ccccc3)n2)c1 [CBK267304]	97.4
O=C(Nc1ccc(S(=O)(=O)Nc2nccc(C3Cc4ccccc4C(=O)O3)n2)cc1)c1ccccc1 (centres unmarked) [CBK267306]	105
O=C(CSc1nnc(-c2ccco2)n1-c1ccccc1)NCc1ccc2c(c1)OCO2 [CBK267308]	85.3
Clc1cccc(-c2nc(NCCCN3CCOCC3)c3ccccc3n2)c1 [CBK267309]	76
O=[N+]([O-])c1cccc(-c2ccc(-c3nn4c(Cc5ccccc5)nnc4s3)o2)c1 [CBK267310]	86.4
O=C(CN1CCOCC1)Nc1ccc(Br)cc1[N+](=O)[O-] [CBK267314]	96.9
O=C(NCCN1CCOCC1)c1cccc(S(=O)(=O)N2CCCC2)c1 [CBK267316]	98.2
CCOc1ccc(-c2cn(C(=O)Nc3ccccc3)nc2N)cc1 [CBK267317]	90.3
COc1ccc(Cl)cc1NC(=O)CC1NC2CCCCC2NC1=O (centres unmarked) [CBK267318]	80.4
Nc1ncnc(NCCc2ccc(S(N)(=O)=O)cc2)c1[N+](=O)[O-] [CBK267320]	86.4
CC(=O)Nc1ccc(NC(=O)COc2c(C)cc(Br)cc2C)cc1 [CBK267321]	101
C=CCSc1nc(-c2ccc(OCCC)cc2)n[nH]1 [CBK267323]	100
CC(C)(C)NS(=O)(=O)c1ccc(NC(=O)NC2CCCCC2)cc1 [CBK267324]	96.7
COc1ccc([N+](=O)[O-])cc1NC(=O)c1ccc(-c2cc3ccccc3oc2=O)cc1 [CBK267325]	79.1
Cc1ccc(C(=O)O)cc1S(=O)(=O)N1CCC(C(=O)O)CC1 [CBK267327]	107
O=C(O)CCNS(=O)(=O)c1cccc(Cl)c1 [CBK267328]	106
Cc1cc(/C=C\c2nc(O)c([N+](=O)[O-])c(=O)[nH]2)c(C)n1-c1ccc(C(=O)O)cc1 [CBK267334]	96.4
Cc1nc2ccccc2n1CC(=O)NCCN1CCCC1 [CBK267336]	113
O=C(Nc1ccc(N2CCN(C(=O)c3cccs3)CC2)cc1)c1ccc(-c2cc3ccccc3oc2=O)cc1 [CBK267340]	96.2
CC1(C)CC(=O)C2=C(C1)Nc1ccccc1N(C(=S)NCc1ccco1)C2c1cccnc1 (centres unmarked) [CBK267342]	89.4
c1ccc(-c2nnc3sc(-c4ccccn4)nn23)cc1 [CBK267344]	96.2
CCCn1cc(C(CC(=O)O)C(=O)O)c2ccccc21 (centres unmarked) [CBK267345]	92.4

Compound	viability at 28.5 h, 10 µM [%]
Cc1nc(C)c(-c2csc(Nc3ccc(O)cc3C)n2)s1 [CBK267346]	98.7
CCCCC12CN3CC(C)(CN(C1)C31C(=O)Nc3ccc(Br)cc31)C2=O (centres unmarked) [CBK267348]	96
Cc1ccc(C)c(NC(=O)C2CN(S(=O)(=O)c3ccccc3)CCN2S(=O)(=O)c2ccccc2)c1 (centres unmarked) [CBK267349]	93.5
Nc1ncnc(NCCc2ccc(Cl)cc2)c1[N+](=O)[O-] [CBK267351]	88.3
Cc1nc(N)sc1-c1nnc(Nc2ccccc2)s1 [CBK267353]	82.7
O=C(O)c1ccc(-c2ccc(/C=C/c3nc(O)c([N+](=O)[O-])c(=O)[nH]3)o2)cc1Cl [CBK267354]	88.1
CC(Oc1ccc(Cl)cc1Cl)C(=O)NC(=S)Nc1ccc2c(c1)C(=O)N(C)C2=O (centres unmarked) [CBK267356]	93.9
Cc1nc(N)sc1-c1csc(Nc2cccc(C(F)(F)F)c2)n1 [CBK267357]	95.2
CCc1cc(OCCCSc2nc(C)cc(O)n2)ccc1Cl [CBK267364]	106
CN(CCCc1nc(-c2ccc(Cl)cc2)no1)S(=O)(=O)c1ccc([N+](=O)[O-])cc1 [CBK267365]	96
CN1CCN(NC(=O)CN(C)S(=O)(=O)c2cc(Cl)ccc2Cl)CC1 [CBK267366]	94.2
Cc1cc(C)c2c(c1)C1(C(=O)N2)C(C#N)=C(N)Oc2[nH]nc(-c3ccccc3)c21 (centres unmarked) [CBK267367]	100
CC(CNC(=O)COc1ccc2ccccc2c1Br)CN(C)C (centres unmarked) [CBK267369]	94.9
Cc1cc(O)nc(SCCOCCSc2ccc(Cl)cc2)n1 [CBK267372]	94
CN(CC(=O)NNC(=O)c1ccc(C(C)(C)C)cc1)S(=O)(=O)c1cc(Cl)ccc1Cl [CBK267376]	107
O=S(=O)(NCc1ccco1)c1ccc2c(c1)Cc1ccccc1-2 [CBK267377]	95.5
COc1ccc(/C(N)=N/OC(=O)C(C)Oc2ccc(C(C)(C)C)cc2)cc1OC (centres unmarked) [CBK267378]	94.9
CCN1CCN(CCCOc2ccccc2Cc2ccccc2)CC1 [CBK267379G]	95
CN(CCCC(=O)Nc1nnc[nH]1)S(=O)(=O)c1ccccc1 [CBK267380]	82.4
O=C(O)CCCC(=O)Nc1ccc([N+](=O)[O-])cc1O [CBK267384]	102
CN(Cc1nc(-c2cccnc2)no1)S(=O)(=O)c1ccc2ccccc2c1 [CBK267385]	87.2
O=C(Nc1ccc(Cl)cc1Cl)NC(Cc1ccc(O)cc1)C(=O)O (centres unmarked) [CBK267386]	90.9

Compound	viability at 28.5 h, 10 µM [%]
COc1cc([N+](=O)[O-])ccc1NC(=O)CN(C)S(=O)(=O)c1ccc2ccccc2c1 [CBK267387]	97.5
CC(O)Cc1nnc(SCC(=O)c2ccc([N+](=O)[O-])cc2)n1-c1ccccc1 (centres unmarked) [CBK267389]	81.1
O=C(COc1ccc2ccccc2c1Br)NCCN1CCOCC1 [CBK267391]	89.7
C=CCc1cc(C)cc(C)c1OCCN1CCN(CC)CC1 [CBK267392G]	93.7
Nc1nc(CSc2nnc(-c3ccccc3O)n2Cc2ccccc2)cs1 [CBK267394]	90.4
COc1cc(OC)c(NC(=O)CN(C)S(=O)(=O)c2cc(Cl)ccc2Cl)cc1Cl [CBK267399]	91.3
O=C(O)CCN1C(=O)c2ccc(Oc3ccc(NC(=O)c4ccc(Cl)c(Cl)c4)cc3)cc2C1=O [CBK267400]	90.6
O=C(O)CCC(=O)Nc1ccc(-c2nc3cc(C(=O)c4ccccc4)ccc3[nH]2)cc1 [CBK267401]	100
Cc1cc(=O)oc2cc(OCc3ccc(S(=O)(=O)N4CCOCC4)cc3)ccc12 [CBK267402]	91.3
COc1cc2c(cc1NC(=O)CN(C)S(=O)(=O)c1ccc(Cl)cc1)oc1ccccc12 [CBK267404]	93.6
O=C(Nc1ccc(Cl)cc1)NC(C(=O)O)c1ccccc1 (centres unmarked) [CBK267405]	94.9
Cc1ccccc1OCc1nnc(SCc2nnc(-c3ccccc3)o2)n1C [CBK267406]	90.1
Cc1cc(O)nc(SCCCSc2ccccc2)n1 [CBK267415]	114
Cc1c(Cl)cc(C(C)C)c(O)c1CNC(=O)CSc1nnc(-c2cccs2)n1C [CBK267416]	94.6
Nc1nnc(SCC(=O)NC23CC4CC(CC(C4)C2)C3)s1 [CBK267417]	97.1
COCCCNCC#CCOc1ccccc1OC [CBK267419G]	94.5
Cc1ccc(OCc2nnc(SCc3cccc(C#N)c3)n2N)cc1C [CBK267420]	84.1
Cc1ccc(C23CC4CC(CC(NC(=O)NC(Cc5ccccc5)C(=O)O)(C4)C2)C3)cc1 (centres unmarked) [CBK267423]	93.7
O=C(CSc1nnc(-c2ccccc2)n1C1CCCCC1)Nc1ccc(Cl)cc1Cl [CBK267424]	100
Cn1c(COc2ccccc2)nnc1SCC(=O)c1ccc(-c2ccccc2)cc1 [CBK267426]	87.9
COc1ccc(OC)c(NC(=O)CSc2nnc(-c3ccco3)o2)c1 [CBK267429]	98.3
CN(CC(=O)Nc1nnc[nH]1)S(=O)(=O)c1cc(Cl)ccc1Cl [CBK267433]	97

Compound	viability at 28.5 h, 10 µM [%]
O=C(CSCc1c(Cl)cccc1Cl)Nc1cccc(-c2nnc(-c3ccccc3)o2)c1 [CBK267435]	96.7
NS(=O)(=O)c1ccc(CCNC2CC(=O)N(Cc3ccccc3)C2=O)cc1 (centres unmarked) [CBK267439]	90.5
COC(=O)C(O)(CC(=O)Nc1ccc(C)c(F)c1)C(F)(F)F (centres unmarked) [CBK267440]	103
CCOC(=O)NC(=O)CSc1nc2ccccc2[nH]1 [CBK267443]	91.9
COc1ccc(NC(=O)CSc2nc3c(c(-c4cccs4)c2C#N)CN(C)CC3)cc1OC [CBK267444]	103
CN1CCc2nc(SCC(=O)NC(C)(C)C)c(C#N)cc2C1 [CBK267445]	87.4
CN1CCc2nc(SCC(=O)c3ccc(-c4ccccc4)cc3)c(C#N)c(-c3cccs3)c2C1 [CBK267447]	88.3
CC1=C(C(=O)Nc2ccccc2)C(c2ccccc2)C(C#N)=C(SCc2ccncc2)N1 (centres unmarked) [CBK267448]	90.2
CC(C)CC1C(C#N)=C(N)Oc2[nH]nc(-c3cccs3)c21 (centres unmarked) [CBK267449]	104
N#Cc1c(SCC(=O)N2CCc3ccccc3C2)nsc1SCC(=O)N1CCc2ccccc2C1 [CBK267453]	93.6
CCOC(=O)CC(=O)CSc1nc(-c2cccnc2)ccc1C#N [CBK267456]	89.6
CSc1nc(N)nc2sc3c(O)cc(=O)[nH]c3c12 [CBK267457]	105
Nc1cc(N)nc(SCc2cccnc2)n1 [CBK267459]	97.5
CSc1nc(N)nc(SC(C(=O)O)c2ccccc2)c1C#N (centres unmarked) [CBK267461]	93.4
CN1CCc2nc(SCc3cccnc3)c(C#N)cc2C1 [CBK267463]	87.4
CN(C)S(=O)(=O)N1CCN(C(=O)N(c2ccccc2)c2ccccc2)CC1 [CBK267466]	96.7
O=C(c1cccc(Br)c1)N1CCN(S(=O)(=O)N2CCOCC2)CC1 [CBK267470]	93.2
O=C(CCc1ccccc1)NC(=S)Nc1ccc(-c2nc3ccccc3[nH]2)cc1 [CBK267472]	77.1
COC(=O)C1=C(C)N(CCc2ccccc2)C(=O)C1(NC(=O)c1ccccc1)C(F)(F)F (centres unmarked) [CBK267477]	86
